Patent publication US8697706B2 (priority 2011, dated 2014)
pEC50: −log10 of the molar value.

System: HCV pseudoparticles (genotype 1a HCV E1 and E2 envelope, H77C isolate)
Test: microbe, parasite or virus in culture
Type: cell-based, HCV genotype 1a (H77C isolate)
Conditions: Hepatitis C virus, Huh-7, 48 h, HCV pseudoparticle entry into Huh7 cells, luciferase measured 2 days after infection

Compound | pEC50 (average of duplicate) | pEC50 (class symbol)
CC1(C)CNCCCOc2ccc(cc2)CNc2nc(cc(OCC(F)(F)F)n2)Nc2ccc(cc2)C(=O)NC1 [Compound 3001] | 6.97 | 6.00 to 7.00
CC1(C)CNCCCOc2ccc(cc2)CNc2cc(OCC(F)(F)F)nc(n2)Nc2ccc(cc2)C(=O)NC1 [Compound 3002] | – | > 7.00
